Assay results published in publication PMC8275550, “Developmental Neurotoxicity of Fipronil and Rotenone on a Human Neuronal In Vitro Test System” (Neurotoxicity Research, 2021).
“Also recorded” adds a separate entry of the source. Like-named read-outs stand apart in the source and are kept apart here.

Columns and labels:
NT2 neurons = assay: cells; assay type: cell-based, human; conditions: for Effect on neurite outgrowth, endpoint specific control compounds: concentration-response curves, supplementary Fig. 1
Description: Two photographs/well at × 20 magnification were taken.

[1] = system: differentiating NT2 cells; assay: cells; assay type: cell-based, human; conditions: for IC50: NT2, 120 h, read-out: IC50 neuronal differentiation (ß-tub III, spec. EP)
Experimental: (§1) As established in our previous study (Stern et al. [2014]), cells were seeded into 96-well plates (Corning Costar, Kaiserslautern, Germany) at 80,000 cells per well and incubated in DMEM/F12 with 10 µM retinoic acid (RA) for 4 days (one media change). Cells were incubated for further 5 days (one media change) in media containing 10 µM RA and up to seven concentrations of a test compound. On day 9 (5-day exposition), cell viability was measured using a resazurin reduction assay (Trinova Biochem, Giessen, Germany). Subsequently, cells were fixed for 15 min in PFA and immunolabeled for ß-tubulin type III as above (Fig. 1a). For control purposes, photographs were taken at × 20 magnification as above. Neuronal differentiation was determined by measuring red fluorescence (excitation 568 nm, emission 603 nm) in a multiwell-plate reader (Infinite 200, TECAN, Germany). As a confirmation of the viability data, cell number was also quantified by measuring DAPI fluorescence (excitation 350 nm, emission 488 nm).

[2] = Resazurin reduction viability assay in the neuronal differentiation assay; assay type: cell-based, human; conditions: human
Experimental: as §1

[3] = system: differentiating NT2 cells; assay: as above; assay type: cell-based, human; conditions: differentiation assay
Experimental: as §1

NT2 precursor cells [4] = assay: cells; assay type: cell-based, human; conditions: for IC50: read-out: IC50 migration (spec. EP); for Rescue by NAC, migration / Rescue by Y-27632, migration: yes = at least one concentration of rescuing compound with specific endpoint significantly less affected
Experimental: (§2) As established before (Stern et al. [2014]), NT2 precursor cells were seeded in 96-mm bacteriological grade Petri dishes (Greiner, Hamburg, Germany) at a density of 4 × 10^6–5 × 10^6 cells per dish. Within 24 h, cells formed free-floating spherical aggregates of 300–800 µm diameter. On the first day, 10 ml of culture medium was added to each Petri dish. On the next days, medium with 10 μM retinoic acid (RA) was added and changed every 2–3 days by transferring the cell suspension to centrifuge tubes and centrifuge at 200 × g for 7 min. After 9 days in culture, aggregates were gently resuspended using a Pasteur pipette, and seeded at 60,000 cells per well into black 96-well plates with flat transparent bottom (Nunc). Plates were lined with poly-D-lysine and laminin (10 µg/ml each), equipped with silicone stoppers from the Oris Cell Migration Assay (AMS Biotechnology, Abingdon, UK). Cells were allowed to adhere overnight. On the next day, stoppers were pulled leaving a monolayer of cells with a circular hole of 2-mm diameter. […] After one wash in PBS, cells were fixed for 15 min in PFA, washed twice in PBS-T and stained with DAPI (0.5 µg/ml) for 5 min, followed by two washes in PBS. A black 96-hole plastic mask leaving a central circular area of 2-mm diameter for each well was clipped to the bottom of the plate. This allows viewing only those cells that had migrated into the free areas left by the silicone stoppers during seeding (Fig. 1b). Migration was quantified by taking two photographs of each well and measuring the distance of the migration front from the black margin of the mask in using ImageJ. Occasional asymmetries caused by slight inaccuracies of silicone stopper placement were compensated by averaging measurements in four quadrants per well. […] Average null-migration values were subtracted from migrated distance before evaluation.

[5] = Resazurin reduction viability assay in the cell migration assay; assay type: cell-based; conditions: human
Experimental: as §2

neurospheres = system: neurospheres; set-up: method as in Ishido and Suzuki ([2010]); conditions: general cytotoxicity not tested; ref Ishido and Suzuki ([2010]); read-out: IC50 cell migration out of neurospheres; cited from earlier work
[6] = human
Experimental: (§3) Dispersed cells were seeded into two identical poly-D-lysine (10 µg/ml) coated 96-well plates (Corning Costar, Kaiserslautern, Germany) at a density of 10,000 cells per well. Cultures were exposed to up to seven different concentrations of a test compound in DMEM/F12 (six technical replicates per concentration) for 24 h. One plate was immediately fixed in 4% paraformaldehyde in PBS (PFA) for 15 min. After 24 h, while a resazurin reduction assay (2 h) was performed on the other plate. […] Fixed cells were washed in PBS containing 0.1% Triton X100 (PBS-T) and immunolabeled for ß-tubulin type III (monoclonal anti ßtubIII, 1:20,000) using a red fluorescent secondary antibody (goat anti mouse-alexaFluor568, Invitrogen, Germany, 1:250) and DAPI (0.1 µg/ml) as nuclear counterstain. Cells were examined on a Zeiss Axiovert 200 inverted microscope equipped with a CoolSnap camera (Photometrics, Tucson, AZ, USA) and MetaMorph software (Molecular Devices, Sunnyvale, CA, USA), or a Zeiss Axiocam50 mono and Zeiss ZENlite 2.6 blue edition software. Two photographs/well at × 20 magnification were taken. Lengths of all neurites in the field of view were measured in ImageJ (http://imagej.nih.gov/ij) using the ‚segmented line ‘ tool (Fig. 1c) and divided by the number of ß-tubulin III-positive cells.

[7] = system: NT2 cells treated for 2 weeks with retinoic acid (2wkRA); conditions: […]
Experimental: as §3

NT2 precursor cells [8] = conditions: 100 nM cytochalasin D, 44 h, without affecting viability; ref Stern et al. [2014]; cited from earlier work
[9] = system: differentiating NT2 cells; conditions: 333 µM sodium valproate; ref Stern et al. [2014]; cited from earlier work
[10] = system: differentiating NT2 cells; set-up: method as in Stern et al. [2014]; conditions: 333 µM sodium valproate; ref Stern et al. [2014]; cited from earlier work
[11] = cited from earlier work
in vitro = conditions: human
Experimental: as §3

[12] = yes = at least one concentration of rescuing compound with specific endpoint significantly less affected than by test compound alone
[13] = yes = at least one concentration of rescuing compound with specific endpoint significantly less affected
[14] = migration assay, 44 h exposure, > = highest tested concentration, read-out: IC50 general cytotoxicity (resazurin), unspec. EP
[15] = co-applied with 2.4 µM rotenone

In the case of `C=C(C)[C@H]1Cc2c(ccc3c2O[C@@H]2COc4cc(OC)c(OC)cc4[C@@H]2C3=O)O1` [Rotenone, (1S,6R,13S)-16,17-Dimethoxy-6-prop-1-en-2-yl-2,7,20-trioxapentacyclo[11.8.0.0^3,11.0^4,8.0^14,19]henicosa-3(11),4(8),9,14,16,18-hexaen-12-one], the IC50 (NT2 neurons; Homo sapiens, Neuron, 24 h, read-out: IC50 neurite outgrowth (spec. EP)) is reported as 0.55 µM, the IC50 (NT2 neurons; Homo sapiens, Neuron, 24 h, read-out: IC50 spec. EP (neurite outgrowth)) is reported as 0.55 µM and the activity at 0.123 µM (NT2 neurons; Homo sapiens, Neuron, read-out: Neurite outgrowth (% of control)) is reported as < 75%. The “Rescue by NAC, neurite outgrowth” value (NT2 neurons; [12]) was “no”, the “Rescue by Y-27632, neurite outgrowth” value (NT2 neurons; [12]) was “Yes” and the “ß-tubulin III-expression (% of control)” value ([1]; 1.2 nM rotenone, highest non-cytotoxic concentration) was “below 75%”. For the same molecule, the IC50 ([1]; Homo sapiens) was 0.00518 µM, the “Rescue by NAC, neuronal differentiation” value [1, 13] was “no” and the “Rescue by Y-27632, neuronal differentiation” value [1, 13] was “No”. The IC50 at 5 days ([2]; differentiation assay, 5 days exposure, > = highest tested concentration, read-out: IC50 general cytotoxicity (resazurin), unspec. EP) was > 0.1 µM, the viability at 5 days, 0.1 µM ([2]; highest tested rotenone concentration (100 nM), read-out: General viability (% of control)) was 72% and the “Highest non-cytotoxic concentration (viability > 90%)” value [3] was 1.2 nM. The “Concentration at which a significant reduction of migration could already be observed” value (NT2 precursor cells [4]; 44 h exposure) was 4.12 nM, the IC50 (NT2 precursor cells [4]; Homo sapiens, 44 h) was 0.051 µM and the “Rescue by NAC, migration” value (NT2 precursor cells [4]) was “no”. For the same molecule, the “Rescue by Y-27632, migration” value (NT2 precursor cells [4]) was “Yes”, the viability at 44 h, 0.333 µM ([5]; highest tested rotenone concentration (333 nM), read-out: General viability (% of control)) was > 70% and the IC50 at 44 h [5, 14] was > 0.333 µM. The IC50 (neurospheres) was ~0.2 µM, the IC50 at 24 h [6] was > 10 µM and the viability at 24 h, 10 µM ([6]; General cell viability (% of control), highest tested concentration, 10 µM rotenone) was ~80%. For the same molecule, the “Highest non-cytotoxic concentration (viability > 90%)” value [7] was 123 nM.

In the case of `C=C1[C@@H](C)[C@H]2[C@H](Cc3ccccc3)NC(=O)[C@]23[C@H](OC(C)=O)/C=C/[C@@](C)(O)C(=O)[C@@H](C)C/C=C/[C@H]3[C@@H]1O` [Cytochalasin D, [(1R,2R,3E,5R,7S,9E,11R,12S,14S,15R,16S)-16-Benzyl-5,12-dihydroxy-5,7,14-trimethyl-13-methylidene-6,18-dioxo-17-azatricyclo[9.7.0.0^1,15]octadeca-3,9-dien-2-yl] acetate], the activity at 0.1 µM (NT2 neurons; Homo sapiens, Neuron, 100 nM cytochalasin D, read-out: Neurite outgrowth (% of control), endpoint-specific control) is listed as < 25%, the “Effect on neurite outgrowth, endpoint specific control compounds” value (NT2 neurons) is listed as “specifically inhibits neurite outgrowth” and the “Effect on cell motility, null-migration reference” value (NT2 precursor cells [8]) is listed as “completely inhibits cell motility”.

In the case of `COc1cc2c(c(OC)c1OC)-c1ccc(OC)c(=O)cc1[C@@H](NC(C)=O)CC2` [Colchicine], the “Effect on neurite outgrowth, endpoint specific control compounds” value (NT2 neurons) is reported as “specifically inhibits neurite outgrowth”.

For `CCCC(CCC)C(=O)[O-].[Na+]` [Sodium valproate, Sodium; 2-propylpentanoate], the “Neuronal differentiation (% of control), endpoint-specific control” value [9] is given as “less than 50%” and the “General viability (% of control), endpoint-specific control” value [10] is given as “above 85%”.

In the case of `CC(C)=CCC/C(C)=C/CC/C(C)=C/CC[C@]1(C)CCc2c(C)c(O)c(C)c(C)c2O1` [α-tocotrienol, (2R)-2,5,7,8-Tetramethyl-2-[(3E,7E)-4,8,12-trimethyltrideca-3,7,11-trienyl]-3,4-dihydrochromen-6-ol], the “Effect on rotenone-induced NT2 neurite outgrowth inhibition” value (NT2 neurons; [15]) is reported as “could not change”.

With `C[C@@H](N)[C@H]1CC[C@H](C(=O)Nc2ccncc2)CC1` [Y-27632, 4-[(1R)-1-Aminoethyl]-N-pyridin-4-ylcyclohexane-1-carboxamide] the activity at 50 µM (NT2 neurons; Homo sapiens, Neuron, 50 µM Y-27632, without affecting general viability, read-out: Neurite outgrowth (% of control), endpoint-specific control) was > 125%, the EC50 (NT2 neurons; Homo sapiens, Neuron, co-applied with 2.4 µM rotenone, read-out: EC50 compensation of rotenone-inhibited neurite outgrowth) was 12.1 µM and the “Effect on rotenone-induced NT2 neurite outgrowth inhibition” value (NT2 neurons; [15]) was “could alleviate”. For the same molecule, the activity at 50 µM (NT2 precursor cells [4]; Homo sapiens, 50 µM Y-27632, without affecting general viability, read-out: Precursor cell migration (% of control), endpoint-specific control) was > 125%, the EC50 (NT2 precursor cells [4]; Homo sapiens, co-applied with 122 nM rotenone, read-out: EC50 alleviation of rotenone-inhibited migration) was 8.3 µM and the EC50 (NT2 precursor cells [4]; Homo sapiens, co-applied with 15 µM fipronil sulfone, read-out: EC50 alleviation of fipronil sulfone-inhibited migration (Y-27632)) was 4.22 µM. The “Effect on fipronil-induced inhibition of migration” value (NT2 precursor cells [4]; co-applied with 50 µM fipronil) was “could not alleviate; also recorded: could not be alleviated”.

In the case of `CC(=O)N[C@@H](CS)C(=O)O` [NAC, (2R)-2-Acetamido-3-sulfanylpropanoic acid], the “Effect on rotenone-induced NT2 neurite outgrowth inhibition” value (NT2 neurons; [15]) is reported as “could not change”, the “Effect on fipronil inhibition of NT2 differentiation” value ([1]; 370 µM NAC and higher, with 15 µM fipronil) is reported as “completely negated” and the EC50 ([1]; Homo sapiens, NT2, co-applied with 15 µM fipronil, read-out: EC50 rescue of fipronil-inhibited neuronal differentiation) is reported as 94.7 µM. The “Effect on rotenone inhibition of ß-tubulin III-immunofluorescence” value ([1]; co-applied with 11 nM rotenone, any concentration) was “could not alleviate”, the EC50 (NT2 precursor cells [4]; Homo sapiens, all three tested endpoints as worded in abstract, read-out: EC 50 ameliorating the inhibitory effects of fipronil on all three tested endpoints (abstract)) was 84 to 164 µM and the EC50 (NT2 precursor cells [4]; Homo sapiens, co-applied with 15 µM fipronil sulfone, only slight alleviation, read-out: EC50 alleviation of fipronil sulfone-inhibited migration (NAC)) was 84.6 µM. For the same molecule, the EC50 (NT2 precursor cells [4]; Homo sapiens, co-applied with 50 µM fipronil, read-out: EC50 alleviation of fipronil-inhibited migration) was 161 µM, the “Effect on rotenone inhibition of migration” value (NT2 precursor cells [4]; co-applied with 122 nM rotenone, any concentration) was “could not be alleviated” and the “Effect on fipronil sulfone inhibition of migration” value (NT2 precursor cells [4]; co-applied with 15 µM fipronil sulfone) was “only slightly alleviated”. For the same molecule, the “Effect on fipronil-induced inhibition of migration” value (NT2 precursor cells [4]; co-applied with 50 µM fipronil) was “could completely counteract”.

With `N#Cc1nn(-c2c(Cl)cc(C(F)(F)F)cc2Cl)c(N)c1S(=O)(=O)C(F)(F)F` [Fipronil sulfone, 5-Amino-1-[2,6-dichloro-4-(trifluoromethyl)phenyl]-4-(trifluoromethylsulfonyl)pyrazole-3-carbonitrile] the IC50 (NT2 neurons; Homo sapiens, 24 h exposure, total neurite length/neuron, normalized to solvent control, read-out: IC50 neurite outgrowth (spec. EP)) was 34 µM, the IC50 ([1]; Homo sapiens, 5 days exposure) was 9.77 µM and the activity at 7.81 µM ([1]; Homo sapiens, NT2, 7.81 µM fipronil sulfone, read-out: Neuronal differentiation (% of control)) was 70%. For the same molecule, the “Rescue by NAC, neuronal differentiation” value [1, 13] was “no”, the viability ([2]; 7.81 µM fipronil sulfone, read-out: General viability (% of control)) was ~100% and the IC50 ([2]; differentiation assay, 5 days exposure, read-out: IC50 general cytotoxicity (resazurin), unspec. EP) was 15.5 µM. The “Concentrations with significant differences between viability and migration” value (NT2 precursor cells [4]; 44 h exposure) was ≥ 15.63 µM, the activity at 15.63 µM (NT2 precursor cells [4]; Homo sapiens, 15.63 µM fipronil sulfone, read-out: Migration (% of control)) was < 40% and the IC50 (NT2 precursor cells [4]; Homo sapiens, 44 h exposure) was 14.2 µM. For the same molecule, the “Rescue by NAC, migration” value (NT2 precursor cells [4]) was “yes”, the “Rescue by Y-27632, migration” value (NT2 precursor cells [4]) was “Yes” and the viability ([5]; 15.63 µM fipronil sulfone, read-out: Viability (% of control)) was 85%. For the same molecule, the IC50 [5, 14] was > 62.5 µM, the “Blood concentration in workers with occupational fipronil exposure” value ([11]; ref Herin et al. [2011]) was “up to 0.1 µM” and the “Concentration measured in umbilical cord blood” value ([11]; urban population of South Korea, ref Kim et al. [2019]) was “up to 1.1 nM”. For the same molecule, the IC50 (in vitro) was 43 µM.
